Consider 15 compounds from patent US20220125051A1, “PRE-HARVEST DESICCATION METHOD” (SYNGENTA CROP PROTECTION AG, priority 2019, published 2022).

Test in all cases: Post-emergence efficacy, Method A
Common to all, as to format: in vivo

In assay [1] the test system is Euphorbia heterophylla (EPHHL). To be noted: Euphorbia heterophylla, post-emergence, 312 h; Application rate 500 g/Ha; evaluated after 13 days; 100=total damage to plant, 0=no damage to plant; read-out: Control of weed species after post-emergence application, EPHHL. The gist of the method: (§1)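 Post-emergence spray on 14-day-old glasshouse plants (24/16 °C day/night, 14 h photoperiod, 65% humidity). Test material was taken up in acetone and IF50 emulsifier mix, then diluted with sodium lauryl ether sulphate (0.25% or 1%) plus 1% ammonium sulphate. Damage was rated 13 days later, 100 = total.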

Assay [2] has as its system Ipomoea hederacea (IPOHE). To be noted: Ipomoea hederacea, post-emergence, 312 h, Application rate 500 g/Ha; evaluated after 13 days; 100=total damage to plant, 0=no damage to plant; read-out: Control of weed species after post-emergence application, IPOHE. The gist of the method: as §1
Assay [3] deals with Lolium perenne (LOLPE). To be noted: Lolium perenne, post-emergence, 312 h, Application rate 500 g/Ha; evaluated after 13 days; 100=total damage to plant, 0=no damage to plant; read-out: Control of weed species after post-emergence application, LOLPE. A digest of the protocol:
as §1

Assay [4] deals with Echinochloa crus-galli (ECHCG). To be noted: Echinochloa crus-galli, post-emergence, 312 h; Application rate 500 g/Ha; evaluated after 13 days; 100=total damage to plant, 0=no damage to plant; read-out: Control of weed species after post-emergence application, ECHCG. The gist of the method: as §1
In assay [5] the test system is Amaranthus palmeri (AMAPA). To be noted: Amaranthus palmeri, post-emergence, 312 h; Application rate 500 g/Ha; evaluated after 13 days; 100=total damage to plant, 0=no damage to plant; read-out: Control of weed species after post-emergence application, AMAPA. A digest of the protocol:
as §1

For assay [6], the system named is Eleusine indica (ELEIN). To be noted: Eleusine indica, post-emergence, 312 h; Application rate 500 g/Ha; evaluated after 13 days; 100=total damage to plant, 0=no damage to plant; read-out: Control of weed species after post-emergence application, ELEIN. A digest of the protocol:
as §1

Assay [7] concerns Digitaria sanguinalis (DIGSA). To be noted: Digitaria sanguinalis, post-emergence, 312 h; Application rate 500 g/Ha; evaluated after 13 days; 100=total damage to plant, 0=no damage to plant; read-out: Control of weed species after post-emergence application, DIGSA. The gist of the method: as §1
Assay [8] has as its system Chenopodium album (CHEAL). To be noted: Chenopodium album, post-emergence, 312 h; Application rate 500 g/Ha; evaluated after 13 days; 100=total damage to plant, 0=no damage to plant; read-out: Control of weed species after post-emergence application, CHEAL. A digest of the protocol: as §1
Assay [9] concerns Setaria faberi (SETFA). To be noted: Setaria faberi, post-emergence, 312 h; Application rate 500 g/Ha; evaluated after 13 days; 100=total damage to plant, 0=no damage to plant; read-out: Control of weed species after post-emergence application, SETFA. A digest of the protocol: as §1

For `O=S(=O)([O-])CC[n+]1ccc(-c2ccc(F)cn2)cn1` [Compound A72], the pest or weed control at 500 g/ha in assay [1] was 70%; in [2], 40%; in assay [3], 20%; in [4], 40%; in assay [5] it was 60%; in assay [6], 30%. Besides, the pest or weed control at 500 g/ha is 30% in assay [7], 40% in assay [8] and 40% in assay [9].

As for `O=C([O-])CC[n+]1ccc(-c2cccc(C(F)(F)F)n2)cn1` [Compound A73], the pest or weed control at 500 g/ha in [1] is 60%; in [2] it was 30%; in [3], 40%; in [4], 60%; in assay [5], 40%; in [6], 60%. For the same compound, the figures for the pest or weed control at 500 g/ha in assay [7], in assay [8] and in assay [9] were 30%, 30% and 60%, respectively.

Regarding `O=S(=O)([O-])CC[n+]1ccc(-c2cccc(C(F)(F)F)n2)cn1` [Compound A74], the pest or weed control at 500 g/ha in [1] was found to be 60%; in [2], 50%; in assay [3] it was 60%; in assay [4] it was 60%; in [5], 60%; in assay [6], 80%. In addition, the pest or weed control at 500 g/ha in [7] was 50%; in [8], 30%; in assay [9], 80%.

On to `Cc1cccc(-c2cc[n+](CCS(=O)(=O)[O-])nc2)n1` [Compound A75], for which the pest or weed control at 500 g/ha in assay [1] was 60%; in assay [2] it was 20%; in [3] it was 50%; in assay [4] it was 50%; in assay [5], 60%; in assay [6] it was 60%. Moreover, the pest or weed control at 500 g/ha in assay [7] stood at 50%; in assay [8] it was 30%; in [9], 70%.

With `COc1cc(OC)nc(-c2cc[n+](CCC(=O)[O-])nc2)n1` [Compound A76], the pest or weed control at 500 g/ha in assay [1] worked out at 30%; in [2], 20%; in [3], 30%; in [4] it was 30%; in [5], 30%; in assay [6] it was 30%. For the same compound, the values for the pest or weed control at 500 g/ha in assay [7], in assay [8] and in assay [9] were 20%, 20% and 40%, respectively.

With `COc1cnc(-c2cc[n+](CCCS(=O)(=O)[O-])nc2)cn1` [Compound A78], the pest or weed control at 500 g/ha in [1] is 20%; in [2], 20%; in assay [3], 20%; in assay [4] it was 30%; in assay [5] it was 0%; in assay [6] it was 30%. For the same compound, the pest or weed control at 500 g/ha is 40% in assay [7], 10% in assay [8] and 40% in assay [9].

Turning to `O=S(=O)([O-])CCC[n+]1ccc(-c2cnc(Cl)cn2)cn1` [Compound A79], the pest or weed control at 500 g/ha in assay [1] came out at 10%; in assay [2], 0%; in assay [3] it was 0%; in assay [4] it was 10%; in assay [5], 10%; in [6], 20%. Moreover, the pest or weed control at 500 g/ha in [7] was 20%; in assay [8] it was 30%; in [9], 10%.

As to `CC(C)OC(=O)CC[n+]1ccc(-c2ncccn2)cn1` [Compound A81, isopropyl 3-(4-pyrimidin-2-ylpyridazin-1-ium-1-yl)propanoate 2,2,2-trifluoroacetate], the pest or weed control at 500 g/ha in assay [1] turned out to be 100%; in [2] it was 40%; in assay [3], 40%; in assay [4], 90%; in assay [5], 100%; in assay [6] it was 80%. Also, the results for the pest or weed control at 500 g/ha in assay [7], in [8] and in assay [9] were 100%, 90% and 90%, respectively.

Take `CCOC(=O)CC[n+]1ccc(-c2ncccn2)cn1` [Compound A82]: the pest or weed control at 500 g/ha is 40% in [1]; 20% in assay [2]; 0% in assay [3]; 30% in assay [4]; 70% in assay [5]; 60% in assay [6]. Further, the values for the pest or weed control at 500 g/ha in assay [7], in assay [8] and in assay [9] were 30%, 80% and 60%, respectively.

As to `Cc1cncc(-c2cc[n+](CCS(=O)(=O)[O-])nc2)n1` [Compound A83], the pest or weed control at 500 g/ha in assay [1] is 90%; in [2] it was 40%; in [3] it was 70%; in assay [4], 50%; in assay [5] it was 90%; in assay [6], 100%. Besides, the pest or weed control at 500 g/ha was 100% in assay [7], 80% in assay [8] and 90% in [9].

For `O=S(=O)([O-])CCC[n+]1ccc(-c2cncc(Cl)n2)cn1` [Compound A84], the pest or weed control at 500 g/ha was determined as 90% in assay [1]; 30% in assay [2]; 30% in [3]; 20% in assay [4]; 100% in assay [5]; 20% in assay [6]. Further, the pest or weed control at 500 g/ha is 50% in assay [7], 80% in assay [8] and 50% in assay [9].

For `Cc1cncc(-c2cc[n+](CCC(=O)O)nc2)n1` [Compound A85], the pest or weed control at 500 g/ha stood at 100% in [1]; 30% in assay [2]; 70% in [3]; 70% in assay [4]; 90% in assay [5]; 90% in assay [6]. For the same compound, the pest or weed control at 500 g/ha in [7], in [8] and in assay [9] was 90% in each case.

Turning to `O=C(O)CC[n+]1ccc(-c2ccnc(O)n2)cn1` [Compound A86], the pest or weed control at 500 g/ha came to 50% in assay [1]; 40% in assay [2]; 10% in assay [3]; 20% in assay [4]; 30% in assay [5]; 10% in [6]. For the same compound, the pest or weed control at 500 g/ha in assay [7] amounted to 30%; in [8] it was 40%; in assay [9], 40%.

Take `Cc1c[n+](CCS(=O)(=O)[O-])ncc1-c1ncccn1` [Compound A87]: the pest or weed control at 500 g/ha in assay [1] came out at 50%; in assay [2], 40%; in assay [3], 70%; in assay [4], 70%; in assay [5] it was 50%; in assay [6], 60%. The pest or weed control at 500 g/ha was 70% in assay [7], 30% in [8] and 70% in assay [9].

In the case of `Cc1n[n+](CCS(=O)(=O)[O-])ccc1-c1ncccn1` [Compound A88, 2-(3-methyl-4-pyrimidin-2-yl-pyridazin-1-ium-1-yl)ethanesulfonate], the pest or weed control at 500 g/ha is 60% in [1]; 30% in assay [2]; 60% in assay [3]; 60% in assay [4]; 100% in assay [5]; 90% in assay [6]. The figures for the pest or weed control at 500 g/ha in [7], in [8] and in assay [9] were 90%, 70% and 70%, respectively.
